Source: patent US11229664B2, “Treatment of myelosuppression” (priority 2012, dated 2022)
Several values for one entry are separate records, joined by “and”; a condition that tells them apart may be missing. Equal values may be shown once.

Legend:
[1] = tested on: clotting time (aPTT); test: aPTT assay, clotting time after administration to a subject; format: in vivo; conditions: administered to a subject at a (dose equivalent to a) fully-anticoagulating dose of unfractionated heparin; normal about 27 to 35 seconds
Excerpt: In various preferred embodiments, the PF4-interacting heparinoid is substantially nonanticoagulant. Anti-coagulation activity can be determined using assays known in the art, e.g., activated partial thromboplastin time (aPTT), prothrombin time, anti-Xa clotting and amidolytic assays. See, e.g., U.S. Pat. No. 5,668,118, Example IV; Fryer et al., 1997, J. Pharmacol. Exp. Ther. 282: 208-219, at page 209; Rao et al., 2010, Am. J. Physiol. 299:C97-C110, at page C98; United States Pharmacopeial Convention 1995 (for USP anticoagulant assay and amidolytic assay).
In contrast to unfractionated heparin, ODSH is substantially non-anticoagulating: administered to a subject at a dose that is equivalent to a fully-anticoagulating dose of unfractionated heparin, the clotting time measured in an aPTT assay is no greater than 45 seconds, and typically in the upper range of normal, where normal clotting time ranges from about 27 to 35 seconds. By comparison, unfractionated heparin administered to a subject at a fully anticoagulant dose causes time to clot to range from about 60 to about 85 seconds in an aPTT assay. Another measure of ODSH's anticoagulant activity is its anti-Xa activity which can be determined in an assay carried out using plasma treated with Russell viper venom. […] Whether or not a heparinoid is substantially non-anticoagulating can be determined using any of the above assays.

[2] = format: in vivo, human; conditions: ODSH adjunct to gemcitabine/nab-paclitaxel
Experimental: Patients were also assessed for other side effects of chemotherapy, including fatigue, sensory neuropathy, nausea, and vomiting, each of which was graded according to severity. Grades were: 0 (normal), 1 (mild), 2 (moderate), 3 (severe) and 4 (life-threatening).

[3] = tested on: partial thromboplastin time (aPTT); test: Clinical trial: partial thromboplastin time (aPTT) during ODSH infusion; format: in vivo, human; conditions: for aPTT: individual patients
Excerpt: (§1) As a substantially non-anticoagulant heparinoid, ODSH can be administered at a dose that is greater than the fully anticoagulant dose of unfractionated heparin, without concern for anticoagulant effect, as shown in the Results below.
Lack of anticoagulation by ODSH was confirmed by monitoring partial thromboplastin time (aPTT) during ODSH infusion, at days 1, 3, 10, and 17 of treatment cycle 1. Normal range of aPTT is about 27 to 35 seconds+/−15%.

[4] = tested on: metastatic adenocarcinoma of the pancreas; test: Clinical trial: tumor response and disease status (RECIST 1.1), ECOG performance status; format: in vivo, human
Experimental: (§2) Treatment consisted of a series of 28-day cycles, wherein the last day of one cycle (e.g., day 28, cycle 1) was immediately followed by the first day of the next cycle (e.g., day 1, cycle 2). In each 28-day treatment cycle, patients were dosed at days 1, 8, and 15 (three weeks of medication followed by one week of rest) as follows. First, nab-paclitaxel at 125 mg/m^2 was administered as an intravenous infusion over 30 minutes. […] Nab-paclitaxel and gemcitabine therapy was given as described in the prescribing information for Abraxane® and Gemzar®. See also, Von Hoff et al., 2011, J. Clinical Oncology 29:1-7).
as §1
Blood samples were also tested on day 1 of each treatment cycle for the serum level of CA19-9 (carbohydrate antigen 19-9) a marker used to assess the efficacy of the chemotherapy agents in treating pancreatic cancer. See. e.g., Maeda, 2011, Int. J. Clin. Oncol. 16(5):539-45. Reduction in the serum level of CA19-9 is indicative of chemotherapeutic efficacy against the pancreatic cancer. Tumor response and disease status was measured according to Response Evaluation Criteria in Solid Tumors (RECIST) Guidelines Version 1.1. Eur. J. Cancer, 2009, 45:228-247. A reduction of at least 30% in the sum of the diameters of target lesions (measurable lesions present at screening, up to 2 lesions per involved organ) was scored as a partial response. Patients were scored as having stable disease where the smallest sum of target lesion diameters neither decreased nor increased sufficiently to qualify as a partial response or progressive disease.

[5] = tested on: Human ovarian cancer cell line A2780; test: A2780 human ovarian cancer xenograft model: tumor weight; format: in vivo, athymic female mice; parameters: key to Mouse status printed in place of tumor weight: FD = Found Dead; TS = Terminal Sacrifice; conditions: for Tumor weight, individual mice: listed as PGX ODSH; for Mouse status printed in place of tumor weight: Groups 2 and 3
Experimental: ODSH (50 mg/mL stock concentration) was made by Pyramid Laboratories, Inc. and stored at room temperature until use. As described further below, ODSH was administered either intravenously (IV), at a dose of 48 mg/kg and volume of 10 mL/kg, or subcutaneously (SC) at a dose of 24 mg/kg and volume of 5 ml/kg. Carboplatin obtained from a clinical supplier was stored at 4° C. until use. Carboplatin was administered by intraperitoneal injection (IP) at a dose of 80 mg/kg and volume of 10 mL/kg. Saline solution (0.9% NaCl) was used as a vehicle control for ODSH and administered by the same routes and in the same volumes as ODSH.
Human ovarian cancer cell line A2780 was used in the murine xenograft experiments as follows. Approximately 5×10^6 A2780 cells were used per mouse, injected subcutaneously into the right flank in 0.1 mL of 50% Matrigel/50% media. The study was initiated when tumors reached a size of 90-130 mg. 40 mice were used, 10 per treatment regimen. The mice were normal athymic female mice, aged 6-7 weeks, housed in microisolator cages and maintained under pathogen-free conditions. Tumor and body weights were measured three times per week.
Four treatment groups were studied.

[6] = format: in vivo, human
Experimental: as §2, §1

[7] = ten patients, ODSH adjunct to gemcitabine/nab-paclitaxel

## substantially 2-O, 3-O desulfated heparin [ODSH]
[1]
  Clotting time in aPTT assay: ≤ 45 s
[2]
  Patients experiencing no more than Grade 1 side effects (fatigue, sensory neuropathy, nausea, vomiting): more than 50%
[3]; 4 mg/kg bolus + 0.375 mg/kg/hr 48 h
  Anticoagulation as determined by partial thromboplastin time (aPTT): did not result in anticoagulation
[3]; Cycle 1 Day 1
  aPTT: 29 seconds (2×) and 24 seconds and 36 seconds and 33 seconds and 28 seconds and 26 seconds and 25 seconds and 27 seconds
[3]; Cycle 1 Day 3
  aPTT: 28 seconds and 33 seconds (2×) and 43 seconds and 38 seconds and 31 seconds (3×) and 34 seconds
[3]; Cycle 1 Day 10
  aPTT: 34 seconds (2×) and 32 seconds and 38 seconds and 35 seconds and 31 seconds (2×) and 33 seconds and 36 seconds
[3]; Cycle 1 Day 17
  aPTT: 34 seconds and 28 seconds and 30 seconds (2×) and 42 seconds and 36 seconds and 33 seconds and 29 seconds
[4]; 7 evaluable patients, after 8 weeks in the trial (day 1 of cycle 3)
  ECOG Performance status: stable or improved
[4]; after three or four full cycles of treatment
  Patients with clinical or radiographic evidence of progressive disease: no patient
[4]; [7]
  Patients with partial response (RECIST): 5 patients
  Patients with stable disease (RECIST): 5 patients
[5]; Day 1
  Tumor weight, Mean: 107.0 mg
  Tumor weight, Median: 105.5 mg
[5]; Day 1, Mouse 1-10
  Tumor weight, individual mice: 104 mg (2×) and 107 mg and 109 mg and 112 mg and 120 mg and 126 mg and 90 mg and 96 mg and 101 mg
[5]; Day 4
  Tumor weight, Mean: 146.8 mg
  Tumor weight, Median: 134.2 mg
[5]; Day 4, Mouse 1-10
  Tumor weight, individual mice: 159 mg and 111 mg and 195 mg and 131 mg and 173 mg and 124 mg and 200 mg and 121 mg and 117 mg and 138 mg
[5]; Day 6
  Tumor weight, Mean: 240.3 mg
  Tumor weight, Median: 238.2 mg
[5]; Day 6, Mouse 1-10
  Tumor weight, individual mice: 309 mg and 215 mg and 347 mg and 264 mg and 235 mg and 139 mg and 282 mg and 241 mg and 171 mg and 201 mg
[5]; Day 8
  Tumor weight, Mean: 382.2 mg
  Tumor weight, Median: 392.0 mg
[5]; Day 8, Mouse 1-10
  Tumor weight, individual mice: 449 mg and 321 mg and 639 mg and 413 mg and 411 mg and 183 mg and 422 mg and 373 mg and 315 mg and 296 mg
[5]; Day 11
  Tumor weight, Mean: 609.6 mg
  Tumor weight, Median: 585.4 mg
[5]; Day 11, Mouse 1-10
  Tumor weight, individual mice: 816 mg and 366 mg and 910 mg and 653 mg and 536 mg and 349 mg and 811 mg and 635 mg and 491 mg and 529 mg
[5]; Day 14
  Tumor weight, Mean: 984.4 mg
  Tumor weight, Median: 949.7 mg
[5]; Day 14, Mouse 1-10
  Tumor weight, individual mice: 1,303 mg and 670 mg and 1,499 mg and 1,032 mg and 868 mg and 559 mg and 1,253 mg and 1,084 mg and 815 mg and 762 mg
[5]; Day 18
  Tumor weight, Mean: 1,501.7 mg
  Tumor weight, Median: 1,591.5 mg
[5]; Day 18, Mouse 1-10
  Tumor weight, individual mice: 1,796 mg and 1,150 mg and 1,836 mg and 1,568 mg and 1,714 mg and 891 mg and 1,869 mg and 1,615 mg and 1,157 mg and 1,422 mg
[5]; Day 21
  Tumor weight, Mean: 2,072.6 mg
  Tumor weight, Median: 1952.5 mg
[5]; Day 21, Mouse 1-10
  Tumor weight, individual mice: 2,692 mg and 1,467 mg and 2,639 mg and 1,852 mg and 1,880 mg and 1,289 mg and 2,560 mg and 2,642 mg and 1,681 mg and 2,025 mg
[5]; Day 25
  Tumor weight, Mean: 2,343.5 mg
  Tumor weight, Median: 2,422.8 mg
[5]; Day 25, Mouse 1-10
  Tumor weight, individual mice: 2,414 mg and 2,464 mg and 2,599 mg and 1,817 mg and 2,423 mg
[5]; Day 25, individual mice
  Mouse status printed in place of tumor weight: TS
[5]; Day 28
  Tumor weight, Mean: 3,349.0 mg
  Tumor weight, Median: 3,251.6 mg
[5]; Day 28, Mouse 1-10
  Tumor weight, individual mice: 3,909 mg and 3,784 mg and 3,252 mg and 2,671 mg and 3,129 mg
[5]; Day 28, individual mice
  Mouse status printed in place of tumor weight: TS
[6]; ODSH adjunct to gemcitabine/nab-paclitaxel
  Effect on patient weight: minimum weight loss or even some weight gain
[6]; individual patients, ODSH adjunctive to gemcitabine and nab-paclitaxel, Cycle 6 Day 1
  Weight: 176 pounds and 133 pounds and 157 pounds
